Assay results: patent US12012411B2, “Viral replication inhibitors” (Katholieke Universiteit Leuven, priority 2011, dated 2024)

Tested on: not listed separately
Assay: Cytotoxicity in A549 cells (MTS/PMS)
Format: cell-based
Conditions: human; A549 cells (Table 6)
Experimental: A similar protocol was used to assess cytotoxicity in A549 cells with the difference that cells were seeded at 2×10^4 cells/well.

COc1cc(NC(C(=O)c2cn(C)c3ccccc23)c2ccccc2)cc(OC)c1 (stereo not shown) [CPD-338] and COc1cc(NC(C(=O)c2cn(C)c3ccccc23)c2cccnc2)cc(OC)c1 (stereo not shown) [CPD-360] cannot be ordered by CC50 at 4 days: greater than 124 µM for the first, greater than 124 µM for the second.

Going from COc1cc(NC(C(=O)c2nn(C)c3ccccc23)c2ccc(F)cc2)cc(OC)c1 (stereo not shown) [CPD-340] to COc1cc(NC(C(=O)c2c[nH]c3ccccc23)c2ccc(C)nc2)cc(OC)c1 (stereo not shown) [CPD-346], the CC50 at 4 days falls from greater than 119 µM to 60 µM.

For COc1cc(NC(C(=O)c2c[nH]c3ccccc23)c2ccc(F)cc2)cc(OCCO)c1 (stereo not shown) [CPD-350], the CC50 at 4 days was 63 µM.

Tested on: not listed separately
Assay: in vitro
Conditions: African green monkey

Compared with COc1ccc(NC(C(=O)c2c[nH]c3ccccc23)c2ccccc2)cc1OC (stereo not shown) [CPD-001], COc1cc(NC(C(=O)c2c[nH]c3cc(Cl)ccc23)c2ccccc2)cc(OC)c1 (stereo not shown) [CPD-013] is 3.9-fold lower in CC50: 43 µM for the first, 11 µM for the second.

Going from COc1cc(NC(C(=O)c2c(C)[nH]c3ccccc23)c2ccccc2)cc(OC)c1 (stereo not shown) [CPD-012] to COc1cccc(NC(C(=O)c2csc3ccccc23)c2ccccc2)c1 (stereo not shown) [CPD-193], the CC50 rises from 12 µM to greater than 133 µM.

Same assay, conditions: African green monkey, uninfected quiescent Vero-B cells

Going from COc1cc(NC(C(=O)c2c(C)[nH]c3ccccc23)c2ccccc2)cc(OC)c1 (stereo not shown) [CPD-012] to COc1cc(NC(C(=O)c2cn(C)c3ccccc23)c2ccccc2)cc(OC)c1 (stereo not shown) [CPD-338], the CC50 at 4 days rises from 14 µM to greater than 124 µM.

First: COc1cc(NC(C(=O)c2c[nH]c3cc(Cl)ccc23)c2ccccc2)cc(OC)c1 (stereo not shown) [CPD-013]
Second: COc1cc(NC(C(=O)c2c[nH]c3ccccc23)c2ccc(C)nc2)cc(OC)c1 (stereo not shown) [CPD-346]
The CC50 at 4 days of the first is 6-fold lower: 9 µM for the first, 54 µM for the second.

COc1cccc(NC(C(=O)c2csc3ccccc23)c2ccccc2)c1 (stereo not shown) [CPD-193] and COc1cc(NC(C(=O)c2cn(C)c3ccccc23)c2cccnc2)cc(OC)c1 (stereo not shown) [CPD-360] cannot be ordered by CC50 at 4 days: greater than 133 µM for the first, greater than 124 µM for the second.

With COc1cc(NC(C(=O)c2nn(C)c3ccccc23)c2ccc(F)cc2)cc(OC)c1 (stereo not shown) [CPD-340] the CC50 at 4 days was greater than 119 µM.

Tested on: DENV-2 NGC
Assay: Antiviral activity against DENV-2 NGC in Vero-B cells (viral RNA load by RT-qPCR)
Format: cell-based, Dengue virus
Conditions: Dengue virus, DENV2, Vero B, DENV-2 in Vero-B cells; inhibition of viral RNA replication by 50% (Table 3)

Compared with COc1ccc(NC(C(=O)c2c[nH]c3ccccc23)c2ccccc2)cc1OC (stereo not shown) [CPD-001], COc1cc(NC(C(=O)c2c[nH]c3cc(Cl)ccc23)c2ccccc2)cc(OC)c1 (stereo not shown) [CPD-013] is 40-fold lower in EC50: 0.08 µM for the first, 0.002 µM for the second. The second is the more potent here.

First: COc1cc(NC(C(=O)c2c(C)[nH]c3ccccc23)c2ccccc2)cc(OC)c1 (stereo not shown) [CPD-012]
Second: COc1cc(NC(C(=O)c2cn(C)c3ccccc23)c2ccccc2)cc(OC)c1 (stereo not shown) [CPD-338]
The EC50 of the first is 5-fold higher: 0.05 µM for the first, 0.01 µM for the second. The second is the more potent here.

Going from COc1cccc(NC(C(=O)c2csc3ccccc23)c2ccccc2)c1 (stereo not shown) [CPD-193] to COc1cc(NC(C(=O)c2cn(C)c3ccccc23)c2cccnc2)cc(OC)c1 (stereo not shown) [CPD-360], the EC50 falls from 0.72 µM to 0.04 µM (18-fold). The second is the more potent here.

Compared with COc1cc(NC(C(=O)c2nn(C)c3ccccc23)c2ccc(F)cc2)cc(OC)c1 (stereo not shown) [CPD-340], COc1cc(NC(C(=O)c2c[nH]c3ccccc23)c2ccc(C)nc2)cc(OC)c1 (stereo not shown) [CPD-346] is 2-fold lower in EC50: 0.02 µM for the first, 0.01 µM for the second. The second is the more potent here.

COc1cc(NC(C(=O)c2c[nH]c3ccccc23)c2ccc(F)cc2)cc(OCCO)c1 (stereo not shown) [CPD-350] gave an EC50 of 0.01 µM.

Tested on: uninfected quiescent Vero-B cells
Assay: Cytotoxic assay in uninfected quiescent Vero-B cells (MTS/PMS)
Conditions: 4 days (Table 3)

Compared with COc1ccc(NC(C(=O)c2c[nH]c3ccccc23)c2ccccc2)cc1OC (stereo not shown) [CPD-001], COc1cc(NC(C(=O)c2c[nH]c3ccccc23)c2ccc(F)cc2)cc(OCCO)c1 (stereo not shown) [CPD-350] is 1.6-fold higher in CC50: 29 µM for the first, 46 µM for the second.

Tested on: DENV-2 NGC
Assay: Antiviral activity against DENV-2 NGC in A549 cells (viral RNA load by RT-qPCR)
Format: cell-based
Conditions: Dengue virus, DENV2; DENV-2 in A549 cells (Table 6)

COc1cc(NC(C(=O)c2cn(C)c3ccccc23)c2ccccc2)cc(OC)c1 (stereo not shown) [CPD-338] and COc1cc(NC(C(=O)c2cn(C)c3ccccc23)c2cccnc2)cc(OC)c1 (stereo not shown) [CPD-360] are within 1.5-fold of each other in EC50: 0.026 µM for the first, 0.027 µM for the second.

Compared with COc1cc(NC(C(=O)c2nn(C)c3ccccc23)c2ccc(F)cc2)cc(OC)c1 (stereo not shown) [CPD-340], COc1cc(NC(C(=O)c2c[nH]c3ccccc23)c2ccc(C)nc2)cc(OC)c1 (stereo not shown) [CPD-346] is 3.4-fold lower in EC50: 0.027 µM for the first, 0.008 µM for the second. The second is the more potent here.

For COc1cc(NC(C(=O)c2c[nH]c3ccccc23)c2ccc(F)cc2)cc(OCCO)c1 (stereo not shown) [CPD-350], the EC50 was 0.008 µM.

Tested on: YFV-17D
Assay: microbe, parasite or virus in culture
Format: cell-based
Conditions: Yellow fever virus, Vero B

Going from COc1ccc(NC(C(=O)c2c[nH]c3ccccc23)c2ccccc2)cc1OC (stereo not shown) [CPD-001] to COc1cc(NC(C(=O)c2c[nH]c3cc(Cl)ccc23)c2ccccc2)cc(OC)c1 (stereo not shown) [CPD-013], the EC50 falls from 9.16 µM to 0.52 µM (18-fold). The second is the more potent here.

COc1cc(NC(C(=O)c2c(C)[nH]c3ccccc23)c2ccccc2)cc(OC)c1 (stereo not shown) [CPD-012] and COc1cccc(NC(C(=O)c2csc3ccccc23)c2ccccc2)c1 (stereo not shown) [CPD-193] cannot be ordered by EC50: less than 0.5 µM for the first, less than 0.5 µM for the second.

Tested on: DENV-4 strain Dak HD 34 460
Assay: Antiviral activity against DENV-4 in Vero-B cells (viral RNA load by RT-qPCR)
Format: cell-based, Dengue virus
Conditions: Dengue virus, DENV4, Vero B

Going from COc1ccc(NC(C(=O)c2c[nH]c3ccccc23)c2ccccc2)cc1OC (stereo not shown) [CPD-001] to COc1cc(NC(C(=O)c2c[nH]c3cc(Cl)ccc23)c2ccccc2)cc(OC)c1 (stereo not shown) [CPD-013], the EC50 falls from 4.45 µM to 1.81 µM (2.5-fold). The second is the more potent here.

Going from COc1cccc(NC(C(=O)c2csc3ccccc23)c2ccccc2)c1 (stereo not shown) [CPD-193] to COc1cc(NC(C(=O)c2cn(C)c3ccccc23)c2ccccc2)cc(OC)c1 (stereo not shown) [CPD-338], the EC50 falls from 5.44 µM to 1.82 µM (3-fold). The second is the more potent here.

First: COc1cc(NC(C(=O)c2nn(C)c3ccccc23)c2ccc(F)cc2)cc(OC)c1 (stereo not shown) [CPD-340]
Second: COc1cc(NC(C(=O)c2c[nH]c3ccccc23)c2ccc(C)nc2)cc(OC)c1 (stereo not shown) [CPD-346]
The EC50 of the first is 5-fold higher: 6.39 µM for the first, 1.27 µM for the second.

First: COc1cc(NC(C(=O)c2c[nH]c3ccccc23)c2ccc(F)cc2)cc(OCCO)c1 (stereo not shown) [CPD-350]
Second: COc1cc(NC(C(=O)c2cn(C)c3ccccc23)c2cccnc2)cc(OC)c1 (stereo not shown) [CPD-360]
The EC50 of the first is 1.9-fold lower: 3.11 µM for the first, 5.78 µM for the second. The first is the more potent here.

Tested on: DENV-3 strain H87 prototype
Assay: Antiviral activity against DENV-3 in Vero-B cells (viral RNA load by RT-qPCR)
Format: cell-based, Dengue virus
Conditions: Dengue virus, DENV3, Vero B

First: COc1ccc(NC(C(=O)c2c[nH]c3ccccc23)c2ccccc2)cc1OC (stereo not shown) [CPD-001]
Second: COc1cc(NC(C(=O)c2c[nH]c3cc(Cl)ccc23)c2ccccc2)cc(OC)c1 (stereo not shown) [CPD-013]
The EC50 of the first is higher: 29.4 µM for the first, less than 0.5 µM for the second. The second is the more potent here.

COc1cc(NC(C(=O)c2c(C)[nH]c3ccccc23)c2ccccc2)cc(OC)c1 (stereo not shown) [CPD-012] and COc1cc(NC(C(=O)c2cn(C)c3ccccc23)c2ccccc2)cc(OC)c1 (stereo not shown) [CPD-338] cannot be ordered by EC50: less than 0.5 µM for the first, 0.25 µM for the second.

First: COc1cccc(NC(C(=O)c2csc3ccccc23)c2ccccc2)c1 (stereo not shown) [CPD-193]
Second: COc1cc(NC(C(=O)c2c[nH]c3ccccc23)c2ccc(F)cc2)cc(OCCO)c1 (stereo not shown) [CPD-350]
The EC50 of the first is 67-fold higher: 18.9 µM for the first, 0.28 µM for the second. The second is the more potent here.

Going from COc1cc(NC(C(=O)c2nn(C)c3ccccc23)c2ccc(F)cc2)cc(OC)c1 (stereo not shown) [CPD-340] to COc1cc(NC(C(=O)c2c[nH]c3ccccc23)c2ccc(C)nc2)cc(OC)c1 (stereo not shown) [CPD-346], the EC50 falls from 0.24 µM to 0.04 µM (6-fold).

Tested on: DENV-1 Djibouti strain D1/H/IMTSSA/98/606
Assay: Antiviral activity against DENV-1 in Vero-B cells (viral RNA load by RT-qPCR)
Format: cell-based, Dengue virus
Conditions: Dengue virus, DENV1, Vero B

Compared with COc1ccc(NC(C(=O)c2c[nH]c3ccccc23)c2ccccc2)cc1OC (stereo not shown) [CPD-001], COc1cc(NC(C(=O)c2c[nH]c3cc(Cl)ccc23)c2ccccc2)cc(OC)c1 (stereo not shown) [CPD-013] is 18-fold lower in EC50: 1.6 µM for the first, 0.09 µM for the second. The second is the more potent here.

Compared with COc1cc(NC(C(=O)c2c(C)[nH]c3ccccc23)c2ccccc2)cc(OC)c1 (stereo not shown) [CPD-012], COc1cc(NC(C(=O)c2cn(C)c3ccccc23)c2ccccc2)cc(OC)c1 (stereo not shown) [CPD-338] is 13-fold lower in EC50: 4.42 µM for the first, 0.35 µM for the second.

Going from COc1cccc(NC(C(=O)c2csc3ccccc23)c2ccccc2)c1 (stereo not shown) [CPD-193] to COc1cc(NC(C(=O)c2nn(C)c3ccccc23)c2ccc(F)cc2)cc(OC)c1 (stereo not shown) [CPD-340], the EC50 falls from 23.7 µM to 0.18 µM (130-fold).
